Reference: the supplement of paper PMC8967900

Test system: HAL-01
Assay: selective drug sensitivity score (sDSS, relative to normal bone marrow) (sDSS (score)); higher = more potent and effective on the cell line relative to normal bone marrow cells
Conditions: 72 h
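Note: ALL cell lines in 384-well plates, five doses spanning 10,000-fold, each plate scaled between vehicle and 100 µmol/L benzalkonium chloride controls, sDSS an adapted area-under-curve metric.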

Compared with Oc1ncnc2[nH]ncc12 [Allopurinol] (top concentration 10000 nM), Cn1cc(C[C@@H](N)C(=O)O)c2ccccc21 [1-methyl-D-tryptophan] (top concentration 5000 nM) is higher in “selective drug sensitivity score” value: -0.64 for the first, 0.58 for the second.

Compared with CC(C)n1cnc2c(NCCc3ccc(O)cc3)nc(-c3csc4ccccc34)nc21 [StemRegenin_1] (top concentration 10000 nM), CC(C)(O)CC(=O)NCCn1ccc2ncnc(Nc3ccc(Oc4cccc(C(F)(F)F)c4)c(Cl)c3)c21 [TAK-285] (top concentration 2500 nM) is higher in “selective drug sensitivity score” value: 2.4 for the first, 3.1 for the second.

Going from C#Cc1cccc(Nc2ncnc3cc4c(cc23)OCCOCCOCCO4)c1 [Icotinib] (top concentration 10000 nM) to COc1cc(C)[nH]c(=O)c1CNC(=O)c1c(C)n([C@H](C)C2CCOCC2)c2ccccc12 [CPI-360] (top concentration 10000 nM), the “selective drug sensitivity score” value rises from 1.2 to 1.3.

First: CN[C@@H](C)C(=O)N[C@H]1CN(C(=O)CC(C)C)CC[C@H]2CC[C@@H](C(=O)NC(c3ccccc3)c3ccccc3)N2C1=O [AT-406] (top concentration 10000 nM)
Second: Cc1cc2c(C(=O)NC[C@H](C)c3ccccc3)c(O)c(O)cc2c(O)c1-c1c(C)cc2c(C(=O)NC[C@H](C)c3ccccc3)c(O)c(O)cc2c1O [Sabutoclax] (top concentration 25000 nM)
The “selective drug sensitivity score” value of the first is higher: 3.04 for the first, -7.62 for the second.

Compared with CC(C)(C)C[C@@H]1N[C@@H](C(=O)N[C@H]2CC[C@H](O)CC2)[C@H](c2cccc(Cl)c2F)[C@]12C(=O)Nc1cc(Cl)ccc12 (top concentration 10000 nM), C[C@@H]1C[C@H]2[C@@H]3CCC4=CC(=O)C=C[C@]4(C)[C@@]3(F)[C@@H](O)C[C@]2(C)[C@@]1(O)C(=O)CO [Dexamethasone] (top concentration 10000 nM) is lower in “selective drug sensitivity score” value: 12.2 for the first, -1.42 for the second.

Compared with CN(C)C[C@@H]1CCn2cc(c3ccccc32)C2=C(C(=O)NC2=O)c2cn(c3ccccc23)CCO1 [Ruboxistaurin] (top concentration 10000 nM), CC1(C)NC(=O)N(c2ccc([N+](=O)[O-])c(C(F)(F)F)c2)C1=O [Nilutamide] (top concentration 10000 nM) is higher in “selective drug sensitivity score” value: 1.16 for the first, 2.82 for the second.

First: CCNC(=O)CCC/C=C\C[C@@H]1[C@@H](/C=C/[C@@H](O)CCc2ccccc2)[C@H](O)C[C@@H]1O [Bimatoprost] (top concentration 5500 nM)
Second: O=c1[nH]cc(F)c(=O)[nH]1 [Fluorouracil] (top concentration 10000 nM)
The “selective drug sensitivity score” value of the first is higher: 0 for the first, -0.44 for the second.

Test system: JURKAT
Assay: as above
Conditions: 72 h

Going from Oc1ncnc2[nH]ncc12 [Allopurinol] (top concentration 10000 nM) to Cn1cc(C[C@@H](N)C(=O)O)c2ccccc21 [1-methyl-D-tryptophan] (top concentration 5000 nM), the “selective drug sensitivity score” value rises from -0.64 to -0.62.

Compared with CC(C)n1cnc2c(NCCc3ccc(O)cc3)nc(-c3csc4ccccc34)nc21 [StemRegenin_1] (top concentration 10000 nM), CC(C)(O)CC(=O)NCCn1ccc2ncnc(Nc3ccc(Oc4cccc(C(F)(F)F)c4)c(Cl)c3)c21 [TAK-285] (top concentration 2500 nM) is lower in “selective drug sensitivity score” value: 1 for the first, 0 for the second.

Going from C#Cc1cccc(Nc2ncnc3cc4c(cc23)OCCOCCOCCO4)c1 [Icotinib] (top concentration 10000 nM) to COc1cc(C)[nH]c(=O)c1CNC(=O)c1c(C)n([C@H](C)C2CCOCC2)c2ccccc12 [CPI-360] (top concentration 10000 nM), the “selective drug sensitivity score” value rises from 0 to 0.1.

First: CN[C@@H](C)C(=O)N[C@H]1CN(C(=O)CC(C)C)CC[C@H]2CC[C@@H](C(=O)NC(c3ccccc3)c3ccccc3)N2C1=O [AT-406] (top concentration 10000 nM)
Second: Cc1cc2c(C(=O)NC[C@H](C)c3ccccc3)c(O)c(O)cc2c(O)c1-c1c(C)cc2c(C(=O)NC[C@H](C)c3ccccc3)c(O)c(O)cc2c1O [Sabutoclax] (top concentration 25000 nM)
The “selective drug sensitivity score” value of the first is lower: -1.26 for the first, 16.7 for the second.

Compared with CC(C)(C)C[C@@H]1N[C@@H](C(=O)N[C@H]2CC[C@H](O)CC2)[C@H](c2cccc(Cl)c2F)[C@]12C(=O)Nc1cc(Cl)ccc12 (top concentration 10000 nM), C[C@@H]1C[C@H]2[C@@H]3CCC4=CC(=O)C=C[C@]4(C)[C@@]3(F)[C@@H](O)C[C@]2(C)[C@@]1(O)C(=O)CO [Dexamethasone] (top concentration 10000 nM) is higher in “selective drug sensitivity score” value: -4.74 for the first, -1.52 for the second.

First: CN(C)C[C@@H]1CCn2cc(c3ccccc32)C2=C(C(=O)NC2=O)c2cn(c3ccccc23)CCO1 [Ruboxistaurin] (top concentration 10000 nM)
Second: CC1(C)NC(=O)N(c2ccc([N+](=O)[O-])c(C(F)(F)F)c2)C1=O [Nilutamide] (top concentration 10000 nM)
The “selective drug sensitivity score” value of the first is lower: -1.84 for the first, 1.32 for the second.

Going from CCNC(=O)CCC/C=C\C[C@@H]1[C@@H](/C=C/[C@@H](O)CCc2ccccc2)[C@H](O)C[C@@H]1O [Bimatoprost] (top concentration 5500 nM) to O=c1[nH]cc(F)c(=O)[nH]1 [Fluorouracil] (top concentration 10000 nM), the “selective drug sensitivity score” value rises from 0 to 0.16.

Test system: PEER
Assay: as above
Conditions: 72 h

Compared with Oc1ncnc2[nH]ncc12 [Allopurinol] (top concentration 10000 nM), Cn1cc(C[C@@H](N)C(=O)O)c2ccccc21 [1-methyl-D-tryptophan] (top concentration 5000 nM) is higher in “selective drug sensitivity score” value: -0.64 for the first, -0.62 for the second.

First: CC(C)n1cnc2c(NCCc3ccc(O)cc3)nc(-c3csc4ccccc34)nc21 [StemRegenin_1] (top concentration 10000 nM)
Second: CC(C)(O)CC(=O)NCCn1ccc2ncnc(Nc3ccc(Oc4cccc(C(F)(F)F)c4)c(Cl)c3)c21 [TAK-285] (top concentration 2500 nM)
The “selective drug sensitivity score” value of the first is higher: 1.5 for the first, 0 for the second.

Going from C#Cc1cccc(Nc2ncnc3cc4c(cc23)OCCOCCOCCO4)c1 [Icotinib] (top concentration 10000 nM) to COc1cc(C)[nH]c(=O)c1CNC(=O)c1c(C)n([C@H](C)C2CCOCC2)c2ccccc12 [CPI-360] (top concentration 10000 nM), the “selective drug sensitivity score” value falls from 0.7 to 0.

Going from CN[C@@H](C)C(=O)N[C@H]1CN(C(=O)CC(C)C)CC[C@H]2CC[C@@H](C(=O)NC(c3ccccc3)c3ccccc3)N2C1=O [AT-406] (top concentration 10000 nM) to Cc1cc2c(C(=O)NC[C@H](C)c3ccccc3)c(O)c(O)cc2c(O)c1-c1c(C)cc2c(C(=O)NC[C@H](C)c3ccccc3)c(O)c(O)cc2c1O [Sabutoclax] (top concentration 25000 nM), the “selective drug sensitivity score” value rises from -1.16 to 14.5.

Going from CC(C)(C)C[C@@H]1N[C@@H](C(=O)N[C@H]2CC[C@H](O)CC2)[C@H](c2cccc(Cl)c2F)[C@]12C(=O)Nc1cc(Cl)ccc12 (top concentration 10000 nM) to C[C@@H]1C[C@H]2[C@@H]3CCC4=CC(=O)C=C[C@]4(C)[C@@]3(F)[C@@H](O)C[C@]2(C)[C@@]1(O)C(=O)CO [Dexamethasone] (top concentration 10000 nM), the “selective drug sensitivity score” value rises from -2.04 to -0.92.

First: CN(C)C[C@@H]1CCn2cc(c3ccccc32)C2=C(C(=O)NC2=O)c2cn(c3ccccc23)CCO1 [Ruboxistaurin] (top concentration 10000 nM)
Second: CC1(C)NC(=O)N(c2ccc([N+](=O)[O-])c(C(F)(F)F)c2)C1=O [Nilutamide] (top concentration 10000 nM)
The “selective drug sensitivity score” value of the first is higher: 0.46 for the first, 0.32 for the second.

Compared with CCNC(=O)CCC/C=C\C[C@@H]1[C@@H](/C=C/[C@@H](O)CCc2ccccc2)[C@H](O)C[C@@H]1O [Bimatoprost] (top concentration 5500 nM), O=c1[nH]cc(F)c(=O)[nH]1 [Fluorouracil] (top concentration 10000 nM) is lower in “selective drug sensitivity score” value: 0 for the first, -0.64 for the second.
